Measured values as given in patent publication US20040254162A1, “Oxazolidinone derivatives as antimicrobials” (priority 2001, published 2004).
Values after ≈ are worked out from the molar mass of the structure shown. Values joined by “and” are separate entries in the source; they are usually repeats but may differ in a detail not shown here. Equal entries are not always repeated.

Columns and labels:
[1] = Changes in MIC under different conditions: broth MIC; assay type: cell-based; conditions: strain not given
[2] = Changes in MIC under different conditions: agar MIC; assay type: cell-based; conditions: strain not given
[3] = system: MRSA 562; test: MIC, agar incorporation method; conditions: for MIC: MRSA 562, Table 5; for MIC MRSA 562: agar incorporation, Table 1
[4] = system: MRSA 15187; test: MIC, agar incorporation method; conditions: agar incorporation
[5] = system: VRE 6A (Ent. faecium 6A); test: MIC, agar incorporation method; conditions: agar incorporation
[6] = system: Ent. faecalis ATCC 29212; test: MIC, agar incorporation method; conditions: agar incorporation
[7] = system: Strep. pne. ATCC 6303; test: MIC, agar incorporation method; conditions: agar incorporation
[8] = system: Strep. pyog. ATCC 19615; test: MIC, agar incorporation method; conditions: agar incorporation
[9] = system: MRSA 562; test: In vivo activity against MRSA 562 (ED50); set-up: species or system Methicillin Resistant Staphylococcus aureus; conditions: PO; MRSA 562 infection
[10] = system: MRSA 33; test: MIC, agar incorporation method; conditions: agar incorporation
[11] = system: S. pneum AB 34; test: MIC, agar incorporation method; conditions: agar incorporation
[12] = system: S. aureus ATCC 25923; test: MIC, agar incorporation method; conditions: agar incorporation
[13] = system: S. pneumoniae; test: Summary of in vitro activity (MIC); conditions: S. pneumoniae; for MIC50 / MIC90: Number 19
[14] = system: G +ve bacteria; test: Summary of in vitro activity (MIC); conditions: for MIC50 / MIC90: G +ve, Number 49
[15] = system: S. aureus; test: Summary of in vitro activity (MIC); conditions: S. aureus; for MIC50 / MIC90: Number 8
[16] = system: E. faecalis; test: Summary of in vitro activity (MIC); conditions: E. faecalis; for MIC50 / MIC90: Number 7
[17] = system: Prevotella intermedia; test: Agar dilution MIC, anaerobes; assay type: cell-based; conditions: single isolates, anaerobic agar dilution
[18] = system: Fusobacterium varium; test: Agar dilution MIC, anaerobes; assay type: cell-based; conditions: single isolates, anaerobic agar dilution
[19] = system: Porphyromonas gingivalis; test: Agar dilution MIC, anaerobes; assay type: cell-based; conditions: single isolate, anaerobic agar dilution
[20] = system: Clostridium perfringens; test: microbe, parasite or virus in culture; assay type: cell-based; conditions: single isolates, anaerobic agar dilution
[21] = system: Bacteroides fragilis; test: Agar dilution MIC, anaerobes; assay type: cell-based; conditions: single isolates, anaerobic agar dilution; listed as Quin/dal
[22] = system: Prevotella melaninogenica; test: Agar dilution MIC, anaerobes; assay type: cell-based; conditions: single isolates, anaerobic agar dilution; listed as Quin/dal
[23] = system: Peptostreptococcus magnum; test: Agar dilution MIC, anaerobes; assay type: cell-based; conditions: single isolates, anaerobic agar dilution
[24] = system: Porphyromonas asaccharolytica; test: Agar dilution MIC, anaerobes; assay type: cell-based; conditions: single isolate, anaerobic agar dilution
[25] = system: Prevotella bivia; test: Agar dilution MIC, anaerobes; assay type: cell-based; conditions: single isolate, anaerobic agar dilution
[26] = system: MRSE 879 adherent bacteria; test: Sintered glass adherent bacteria model; conditions: MRSE 879, sintered glass adherent bacteria model
[27] = system: MRSE 879; test: Broth MIC, MRSE 879; assay type: cell-based; conditions: MRSE 879
[28] = system: Prevotella (Bacteroides) disiens; test: Agar dilution MIC, anaerobes; assay type: cell-based; conditions: single isolates, anaerobic agar dilution; listed as Quin/dal
[29] = system: P. acnes; test: Agar dilution MIC, anaerobes; assay type: cell-based; conditions: single isolates, anaerobic agar dilution
[30] = system: Clostridium camis; test: Agar dilution MIC, anaerobes; assay type: cell-based; conditions: single isolates, anaerobic agar dilution
[31] = system: Peptostreptococcus tetradius; test: Agar dilution MIC, anaerobes; assay type: cell-based; conditions: single isolates, anaerobic agar dilution
[32] = system: Fusobacterium montiferum; test: Agar dilution MIC, anaerobes; assay type: cell-based; conditions: single isolates, anaerobic agar dilution; listed as Quin/dal
[33] = system: anaerobic bacteria; test: Agar dilution method for anaerobic bacteria, summary; assay type: cell-based; conditions: anaerobes
[34] = system: Clostridium difficile; test: Agar dilution MIC, anaerobes; assay type: cell-based; conditions: single isolates, anaerobic agar dilution
[35] = system: Peptostreptococcus prevotii; test: Agar dilution MIC, anaerobes; assay type: cell-based; conditions: single isolates, anaerobic agar dilution
[36] = system: Eubacterium leutum; test: Agar dilution MIC, anaerobes; assay type: cell-based; conditions: single isolates, anaerobic agar dilution
[37] = system: Peptostreptococcus micros; test: Agar dilution MIC, anaerobes; assay type: cell-based; conditions: single isolates, anaerobic agar dilution; listed as Quin/dal
[38] = system: Fusobacterium necrogenes; test: Agar dilution MIC, anaerobes; assay type: cell-based; conditions: single isolate, anaerobic agar dilution

## CC(=O)NC[C@H]1CN(c2ccc(N3CCN(C(=O)c4ccoc4)CC3)c(F)c2)C(=O)O1 [Compound No. 08, (S)-N[[3-[3-Fluoro-4-[N-1[4-(3-furoyl)]piperazinyl]phenyl]2-oxo-5-oxazolidinyl]-methyl]acetamide]
[1]
  Broth MIC +50% Sheep serum: 4 µg/mL
  Broth MIC Normal MH broth: 2 µg/mL
[2]
  Agar MIC: 1 µg/mL
[3]
  MIC: 1 µg/mL (≈ 2.32 µM)
  MIC MRSA 562: 1 µg/mL (≈ 2.32 µM)
[4]
  MIC MRSA 15187: 1 µg/mL (≈ 2.32 µM)
[5]
  MIC VRE 6A: 1 µg/mL (≈ 2.32 µM)
[6]
  MIC E. faecalis 29212: 1 µg/mL (≈ 2.32 µM)
[7]
  MIC S. pneum 6303: 2 µg/mL (≈ 4.65 µM)
[8]
  MIC S. pyogenes 19615: 1 µg/mL (≈ 2.32 µM)
[9]
  ED50 (mg/kg body weight) PO: 25 mg/kg body weight
[10]
  MIC MRSA 33: 1 µg/mL (≈ 2.32 µM)
[11]
  MIC S. pneum AB 34: 4 µg/mL (≈ 9.29 µM)
[12]
  MIC S. aureus 25923: 2 µg/mL (≈ 4.65 µM)

## CC(=O)NC[C@H]1CN(c2ccc(N3CCN(C(=O)c4ccc([N+](=O)[O-])s4)CC3)c(F)c2)C(=O)O1.Cl [Compound No. 29, (S)-N[[3-[3-Fluoro-4-[N-1[4-(5-nitro-2-thienoyl)]piperazinyl]phenyl]2-oxo-5-oxazolidinyl]methyl]acetamide hydrochloride]
[1]
  Broth MIC +50% Sheep serum: 0.5 µg/mL
  Broth MIC Normal MH broth: 0.25 µg/mL
[2]
  Agar MIC: <0.1 µg/mL
[3]
  MIC: <0.1 µg/mL
  MIC MRSA 562: <0.1 µg/mL
[4]
  MIC MRSA 15187: <0.1 µg/mL
[13]
  MIC50: 1 µg/mL
  MIC90: 1 µg/mL
[5]
  MIC VRE 6A: 0.5 µg/mL
[6]
  MIC E. faecalis 29212: 1 µg/mL
[7]
  MIC S. pneum 6303: 1 µg/mL
[14]
  MIC50: 1 µg/mL
  MIC90: 1 µg/mL
[15]
  MIC50: 0.064 µg/mL
  MIC90: 0.25 µg/mL
[8]
  MIC S. pyogenes 19615: 1 µg/mL
[16]
  MIC50: 1 µg/mL
  MIC90: 1 µg/mL
[9]
  ED50 (mg/kg body weight) PO: >25 mg/kg body weight
[10]
  MIC MRSA 33: <0.1 µg/mL
[11]
  MIC S. pneum AB 34: 1 µg/mL
[12]
  MIC S. aureus 25923: 0.25 µg/mL

## CC(=O)NC[C@H]1CN(c2ccc(N3CCC(N(C)C(=O)c4ccc([N+](=O)[O-])o4)CC3)c(F)c2)C(=O)O1 [Compound No. 44]
[1]
  Broth MIC +50% Sheep serum: 0.25 µg/mL
  Broth MIC Normal MH broth: <0.1 µg/mL
[2]
  Agar MIC: <0.1 µg/mL
[3]
  MIC: <0.1 µg/mL
  MIC MRSA 562: <0.1 µg/mL
[4]
  MIC MRSA 15187: <0.1 µg/mL
[13]
  Geometric Mean of in vitro activity (MIC): 0.96 µg/mL
  MIC50: 1 µg/mL (≈ 1.99 µM)
  MIC90: 2 µg/mL (≈ 3.97 µM)
[5]
  MIC VRE 6A: <0.1 µg/mL
[6]
  MIC E. faecalis 29212: 0.25 µg/mL (≈ 0.497 µM)
[7]
  MIC S. pneum 6303: 2 µg/mL (≈ 3.97 µM)
[14]
  MIC50: 0.5 µg/mL (≈ 0.993 µM)
  MIC90: 2 µg/mL (≈ 3.97 µM)
[14]; Gram + ve
  Geometric Mean of in vitro activity (MIC): 0.31 µg/mL
[15]
  Geometric Mean of in vitro activity (MIC): 0.11 µg/mL
  MIC50: 0.064 µg/mL (≈ 0.127 µM)
  MIC90: 0.25 µg/mL (≈ 0.497 µM)
[8]
  MIC S. pyogenes 19615: 0.5 µg/mL (≈ 0.993 µM)
[16]
  Geometric Mean of in vitro activity (MIC): 0.11 µg/mL
  MIC50: 0.064 µg/mL (≈ 0.127 µM)
  MIC90: 0.25 µg/mL (≈ 0.497 µM)
[9]
  ED50 (mg/kg body weight) PO: >25 mg/kg body weight
[10]
  MIC MRSA 33: <0.1 µg/mL
[11]
  MIC S. pneum AB 34: 2 µg/mL (≈ 3.97 µM)
[12]
  MIC S. aureus 25923: 0.25 µg/mL (≈ 0.497 µM)

## Synercid
[17]
  MIC Prevotella intermedia: 0.25 µg/mL
[18]
  MIC Fusobacterium varium: >8 µg/mL
[19]
  MIC Porphyromonas gingivalis: 0.25 µg/mL
[20]
  MIC Clostridium perfringens: 0.5 µg/mL
[21]
  MIC Bacteroides fragilis: 8 µg/mL and >8 µg/mL
[22]
  MIC Prevotella melaninogenica: 1 µg/mL and 2 µg/mL
[23]
  MIC Peptostreptococcus magnum: 0.25 µg/mL
[24]
  MIC Porphyromonas asaccharolytica: <=.125 μg/ml
[25]
  MIC Prevotella bivia: 2 µg/mL
[26]
  concentration which would kill adherent bacteria: 2 µg/mL
[27]
  broth MIC: 0.5 µg/mL
[28]
  MIC Prevotella (Bacteroides) disiens: >8 µg/mL and 8 µg/mL
[29]
  MIC P. acnes: <=.125 μg/ml
[30]
  MIC Clostridium camis: 0.5 µg/mL
[31]
  MIC Peptostreptococcus tetradius: 1 µg/mL
[32]
  MIC Fusobacterium montiferum: 8 µg/mL and >8 µg/mL and 4 µg/mL
[33]
  Geometric Mean: 1.614 µg/mL
  MIC Range: 0.062 to 16 µg/mL
[33]; Wilkins Chalgren agar, 48 hour
  MIC50: 1 µg/mL
  MIC90: 16 µg/mL
[34]
  MIC Clostridium difficile: 0.5 µg/mL
[35]
  MIC Peptostreptococcus prevotii: 0.25 µg/mL
[36]
  MIC Eubacterium leutum: 0.25 µg/mL
[37]
  MIC Peptostreptococcus micros: 0.5 µg/mL and 1 µg/mL
[38]
  MIC Fusobacterium necrogenes: 0.25 µg/mL
